In ChEMBL document CHEMBL5226293, “Biologically Significant and Recently Isolated Alkaloids from Endophytic Fungi” (2021):
Values after ≈ are worked out from the molar mass of the structure shown.

Experiments:
[1] = tested on: Mycobacterium tuberculosis; assay: Antimycobacterial activity against Mycobacterium tuberculosis assessed as growth inhibition incubated for 7 days by microplate alamar blue bioassay; format: functional; conditions: 168 h, time 7 day
[2] = tested on: Mycolicibacterium smegmatis; assay: Antimycobacterial activity against Mycobacterium smegmatis assessed as growth inhibition incubated for 7 days by microplate alamar blue bioassay; format: functional; conditions: 168 h, time 7 day

**Q.** For `O=C(/C=C/C=C/c1ccc2c(c1)OCO2)N1CCCCC1` [PIPERINE], which MIC [1] is on record?
**A.** Its MIC is 2.62 µg/mL (≈ 9.18 µM).

**Q.** And the MIC [2]?
**A.** Its MIC is 1.74 µg/mL (≈ 6.1 µM).
